Test results reported in patent publication US10590115B2, “Tetrahydroquinazoline derivatives useful as anticancer agents” (PFIZER INC., priority 2018, dated 2020).

Legend:
[1] = biological target: T1, GDP-loaded kRas (1-169) G12C, C51S, C80L, C118S (Homo sapiens, UniProt P01116, C118S/C51S/C80L/G12C); assay: Mass Spectrometry Reactivity Assay (MSRA), covalent adduct with kRas G12C; format: binding; conditions: 0.5 h at room temperature; 5 μM KRas protein; typical final concentration of the compounds 10 μM
T1 construct: GDP-loaded kRas (1-169) G12C, C51S, C80L, C118S
Experimental: Mass Spectrometry Reactivity Assay (MSRA)
Compounds presented in the present invention covalently bind to kRas G12C using MSRA to detect a covalent adduct of the exemplary compound and kRas G12C. GDP-loaded kRas (1-169) G12C, C51S, C80L, C118S were diluted in the protein assay buffer 25 mM Hepes pH7.5, 200 mM NaCl, 5% glycerol to concentration of 5 μM and 20 μl of protein was transferred into 96-well plate. […] See K-Ras(G12C) inhibitors allosterically control GTP affinity and effector interactions; Ostrem J M, Peters U, Sos M L, Wells J A, Shokat K M; Nature. 2013, Nov. 28; 503(7477):548-51.
Exemplary compounds dissolved in DMSO were diluted 100-fold into solution containing 20 μl of 5 μM KRas protein in the 96-well plate to initiate the reaction. Mosquito (TPP Lab tech) liquid handling robot was used to add compounds to protein solution. Typical final concentration of the compounds was 10 μM. The plates were placed on a shaker for 1 min at RT, sealed and incubated at room temperature for specified time period. 5 μl of reaction mix was added to 10 μl of 0.2% formic acid stop solution and mixed well. Typical end points were 30, 120, 600 and 1440 min.
Data were collected using Waters Acquity H-class UPLC system/Xevo G2-XS TOF mass spectrometer. The protein was injected in their liquid phase onto a Bruker Microtrap protein column TR1/15109/03. The following buffers were used to set LC gradient: Buffer A: 0.2% formic acid H20; B: 0.2% formic acid CAN. The protein was eluted from the column using the following LC Gradient: 0-0.4 min, 10% B to 30% B; 0.4 min-2.4 min, to 90% B, 2.5 min, 10% B, 3 min, 10% B. Initial data analysis was performed using MaxEnt software right after data acquisition.
The standard auto processing function was used to define percentage of unmodified and modified kRas protein using MexEnt software right after data acquisition. The highest peak was defined as 100% while smaller peak as assigned the number defined by autoprocessing function. The percent of modification corresponding to modified with exemplary compound and unmodified KRas GDP-loaded kRas (1-169) G12C, C51S, C80L, C118S were exported to Xcel data analysis software.
The percent of modified protein at the defined concentration of exemplary compound was calculated using the following formula: % mod=Num of modified peak/Sum of modified+unmodified.

[2] = biological target: T2, KRAS G12C in MiaPaCa2 cells (Homo sapiens, UniProt P01116, G12C); assay: MiaPaCa2 Cell Activity Assay (Raf-1 RBD capture of active Ras, MSD); format: cell-based; conditions: MIAPaCa-2 cells, 6 hours treatment; assay limit is 30.0 μM
T2 construct: endogenous in cells; host or cells: MiaPaCa2
Experimental: MiaPaCa2 Cell Activity Assay
Compounds presented in the present invention lead to the accumulation of the GDP bound Ras upon treatment of human cancer cell line.
The accumulation of the GDP-bound KRAS G12C in cellular environment was measured based on the principle that KRAS G12C only binds to its downstream kinase; Raf-1 (MAP Kinase Kinase Kinase), when in its active-GTP bound state. In this state, Ras binded to a domain of Raf-1 kinase referred to as the Ras Binding Domain (RBD).
MiaPaCa2 cells were grown in DMEM medium (Gibco 11995) supplemented with 10% fetal bovine serum and 1% penicillin/streptomycin. Cells were seeded in 96-well tissue culture plates at a density of 40,000 cells/well and allowed to attach for 16-24 hours. Test compounds were prepared as a 10 mM stock in DMSO and serially diluted in 100% DMSO using a 3-fold dilution scheme. An intermediate 5× concentrated plate in complete growth medium was made and 25 μl/well was added to the 100 μl of cells for a final concentration of 0.1% DMSO. Each concentration of exemplary compound was tested in duplicate. The negative control wells were cells with control inhibitor at 10 μM, and the positive control wells were cells without drugs, DMSO only. Plates were incubated for 6 hours at 37° C., 5% CO2. Following treatment, cells were washed 3× with ice-cold PBS and 100 μl/well ice-cold 1× Assay/Lysis. Buffer with protease inhibitors was added (25 mM HEPES, pH 7.5, 150 mM NaCl, 1% NP-40, 10 mM MgCl2, 1 mM EDTA, 2% Glycerol). Following lysis samples were frozen at −80° C.
Raf-1 RBD (LJIC-1988A1) was diluted to 100 ng/well in PBS and 5 μl/well was spot coated onto MSD high bind SECTOR plates (L15XB). Plates were incubated at room temperature for 1 hour on an orbital shaker. Plates were washed with PBS/0.05% Tween-20 and 50 μl/well of thawed lysate samples were added, followed by 50 μl of 1% MSD Blocker A in PBS/0.05% Tween-20 (R93BA). Plates were incubated for 1 hour on an orbital shaker and washed with PBS/0.05% Tween-20. 25 μl/well of Anti-pan-Ras Antibody (Cell Biolabs 244003) diluted 1:3000 was added in 1% MSD Blocker A solution and plates were incubated for 1 hour on an orbital shaker and washed with PBS/0.05% Tween-20. SULFO-TAG goat anti-mouse secondary antibody (MSD R32AC) was diluted 1:500 in MSD Blocker A solution and added at 25 μL/well. Plates were incubated for 1 hour on an orbital shaker and washed with PBS/0.05% Tween-20. 150 μl/well of Read Buffer T (MSD R92TC) diluted 1:3 in H2O was added and plates were read on a Meso Scale Discovery Sector Imager S600.
KRAS signal was normalized to maximum inhibition and DMSO control values, and IC50 values were generated using a 4 parameter fit of the dose response curve. The decrease in IC50 reflects that the exemplary compound lead to a higher level of accumulation of GDP-bound KRAS G12C than another exemplary compounds at specific timepoint of treatment of cancer cell line.

Row | Compound | % Modification (0.5 h) [1] [%] | IC50 [2] [µM]
1 | C=CC(=O)N1CCN(c2ncnc3c2C[C@@H](C)[C@H](c2c(C)ccc4[nH]ncc24)C3)CC1 (relative stereo) [Example A4, 1-{4-[(6R,7R)-rel-6-methyl-7-(5-methyl-1H-indazol-4-yl)-5,6,7,8-tetrahydroquinazolin-4-yl]piperazin-1-yl}prop-2-en-1-one] | 53 | 1.3
2 | C=CC(=O)N1CCN(c2ncnc3c2C[C@@H](CO)[C@H](c2c(C)ccc4[nH]ncc24)C3)CC1 (relative stereo) [Example A7, 1-{4-[(6R,7R)-rel-6-(hydroxymethyl)-7-(5-methyl-1H-indazol-4-yl)-5,6,7,8-tetrahydroquinazolin-4-yl]piperazin-1-yl}prop-2-en-1-one] | 11 | 29.3
3 | C=CC(=O)N1CCN(c2ncnc3c2C[C@@H](C)[C@H](c2c(Cl)c(C)cc4[nH]ncc24)C3)CC1 (relative stereo) [Example A8, 1-{4-[(6R,7R)-rel-7-(5-chloro-6-methyl-1H-indazol-4-yl)-6-methyl-5,6,7,8-tetrahydroquinazolin-4-yl]piperazin-1-yl}prop-2-en-1-one] | 54 | 0.462
4 | C=CC(=O)N1CCN(c2ncnc3c2C[C@@H](C)[C@H](c2c(C)c(Cl)cc4[nH]ncc24)C3)CC1 (relative stereo) [Example A9, 1-{4-[(6R,7R)-rel-7-(6-chloro-5-methyl-1H-indazol-4-yl)-6-methyl-5,6,7,8-tetrahydroquinazolin-4-yl]piperazin-1-yl}prop-2-en-1-one] | 77 | 0.155
5 | C=CC(=O)N1CCN(c2ncnc3c2CC[C@@H](c2c(C)ccc4[nH]ncc24)C3)CC1 (single isomer, unassigned) [Example A2] | 0 | 
6 | C=CC(=O)N1CCN(c2ncnc3c2CC[C@H](c2c(C)ccc4[nH]ncc24)C3)CC1 (single isomer, unassigned) [Example A3] | 39 | 4.15
7 | C=CC(=O)N1CCN(c2ncnc3c2CCC(c2c(C)ccc4[nH]ncc24)C3)CC1 (centres unmarked) [Example A1, 1-{4-[7-(5-methyl-1H-indazol-4-yl)-5,6,7,8-tetrahydroquinazolin-4-yl]piperazin-1-yl}prop-2-en-1-one] | 14 | 7.86
8 | C=CC(=O)N1CCN(c2ncnc3c2C[C@H](C)[C@@H](c2c(C)ccc4[nH]ncc24)C3)CC1 [Example A6, 1-{4-[(6S,7S)-6-methyl-7-(5-methyl-1H-indazol-4-yl)-5,6,7,8-tetrahydroquinazolin-4-yl]piperazin-1-yl}prop-2-en-1-one] | 3 | 
9 | C=CC(=O)N1CCN(c2ncnc3c2CCC(c2c(C)ccc4[nH]ncc24)C3)[C@@H](C)C1 (stereo partly drawn) [Example B2, 1-{(3S)-3-methyl-4-[7-(5-methyl-1H-indazol-4-yl)-5,6,7,8-tetrahydroquinazolin-4-yl]piperazin-1-yl}prop-2-en-1-one] | 13 | 
10 | C=CC(=O)N1CCN(c2nc(OCCCOC)nc3c2CCC(c2c(C)ccc4[nH]ncc24)C3)CC1 (centres unmarked) [Example C2, 1-{4-[2-(3-methoxypropoxy)-7-(5-methyl-1H-indazol-4-yl)-5,6,7,8-tetrahydroquinazolin-4-yl]piperazin-1-yl}prop-2-en-1-one] | 22 | 
11 | C=CC(=O)N1CCN(c2ncnc3c2C[C@@H](C)[C@H](c2c(CO)ccc4[nH]ncc24)C3)CC1 [Example D1, 1-(4-{(6R,7R)-7-[5-(hydroxymethyl)-1H-indazol-4-yl]-6-methyl-5,6,7,8-tetrahydroquinazolin-4-yl}piperazin-1-yl)prop-2-en-1-one] | 12 | 

Other lines, results leading:

Row | % Modification (0.5 h) [1] [%] | IC50 [2] [µM] | Compound
12 | 22 | 4.29 | C=CC(=O)N1CCN(c2nc(N3CCN(C)CC3)nc3c2C[C@@H](C)[C@H](c2c(C)ccc4[nH]ncc24)C3)CC1 (relative stereo) [Example F4]
13 | 32 | 1 | C=CC(=O)N1CCN(c2nc(N3CC(CN(C)C)C3)nc3c2C[C@@H](C)[C@H](c2c(C)ccc4[nH]ncc24)C3)CC1 (relative stereo) [Example F9]
14 | 0 |  | C=CC(=O)N1CCN(c2nc(N3CC(N(C)C)C3)nc3c2C[C@H](C)[C@@H](c2c(C)ccc4[nH]ncc24)C3)CC1 (single isomer, unassigned) [Example F3]
15 | 8 |  | C=CC(=O)N1CCN(c2nc(N3CC(N(C)C)C3)nc3c2C[C@H](C)[C@@H](c2c(Cl)ccc4[nH]ncc24)C3)CC1 (single isomer, unassigned) [Example F11]
16 | 0 |  | C=CC(=O)N1CCN(c2ncnc3c2CC[C@@H](c2cc(O)cc4ccccc24)C3)CC1 (single isomer, unassigned) [Example G2]
17 | 73 | 1.11 | C=CC(=O)N1CCN(c2ncnc3c2CC[C@H](c2cc(O)cc4ccccc24)C3)CC1 (single isomer, unassigned) [Example G3]
18 | 40 |  | C=CC(=O)N1CCN(c2ncnc3c2C[C@@H](C)[C@H](c2c(C)cc(O)c4[nH]ncc24)C3)CC1 [Example E1, 1-{4-[(6R,7R)-7-(7-hydroxy-5-methyl-1H-indazol-4-yl)-6-methyl-5,6,7,8-tetrahydroquinazolin-4-yl]piperazin-1-yl}prop-2-en-1-one]
19 | 16 |  | C=CC(=O)N1CCN(c2ncnc3c2CCC(c2c(C(F)(F)F)ccc4[nH]ncc24)C3)CC1 (centres unmarked) [Example G1, 1-(4-(7-(5-(trifluoromethyl)-1H-indazol-4-yl)-5,6,7,8-tetrahydroquinazolin-4-yl)piperazin-1-yl)prop-2-en-1-one]
20 |  | 0.178 | C=CC(=O)N1CCN(c2nc(N3CC(NC)C3)nc3c2C[C@@H](C)[C@H](c2c(C)c(Cl)cc4[nH]ncc24)C3)CC1 [Example H1, 1-(4-{(6R,7R)-7-(6-chloro-5-methyl-1H-indazol-4-yl)-6-methyl-2-[3-(methylamino)azetidin-1-yl]-5,6,7,8-tetrahydroquinazolin-4-yl}piperazin-1-yl)prop-2-en-1-one]
